The source made the active and inactive calls. No cut-off for these calls is given here.
Tests used:
[1] = target: T1, Epidermal growth factor receptor (Homo sapiens, UniProt P00533, L858R/T790M)
[2] = target: T2, Epidermal growth factor receptor (Homo sapiens, UniProt P00533)
[3] = target: T2, Epidermal growth factor receptor; assay: Inhibiton of wild type EGFR (unknown origin) using Poly (Glu4Tyr1) as substrate incubated for 1 hr by ELISA; format: single protein
[4] = target: T1, Epidermal growth factor receptor; format: protein assay
[5] = species: Homo sapiens; assay: Selectivity index, ratio of IC50 for wild type EGFR (unknown origin) to IC50 for EGFR L858R/T790M mutant (unknown origin)
[6] = tested on: NCI-H1975; assay: Selectivity index, ratio of IC50 for human WI38 cells to IC50 for human NCI-H1975 cells harboring EGFR L858R/T790M mutant
[7] = tested on: NCI-H1975; assay: Effect on total EGFR T790M mutant level in EGF-stimulated human NCI-H1975 cells preincubated for 2 hrs followed by EGF stimulation measured after 15 mins by Western blot analysis; format: ADME, cell-based; details: nci-h1975, 0.25 h
[8] = tested on: NCI-H1975; assay: Selectivity index, ratio of IC50 for human GES1 cells to IC50 for human NCI-H1975 cells harboring EGFR L858R/T790M mutant
[9] = tested on: Epidermal growth factor receptor (Homo sapiens), P00533 [L858R,T790M]; details: 100 nM
Sequence of Epidermal growth factor receptor (Homo sapiens), P00533 [L858R,T790M] (P00533 whole entry T790M/L858R, looked up): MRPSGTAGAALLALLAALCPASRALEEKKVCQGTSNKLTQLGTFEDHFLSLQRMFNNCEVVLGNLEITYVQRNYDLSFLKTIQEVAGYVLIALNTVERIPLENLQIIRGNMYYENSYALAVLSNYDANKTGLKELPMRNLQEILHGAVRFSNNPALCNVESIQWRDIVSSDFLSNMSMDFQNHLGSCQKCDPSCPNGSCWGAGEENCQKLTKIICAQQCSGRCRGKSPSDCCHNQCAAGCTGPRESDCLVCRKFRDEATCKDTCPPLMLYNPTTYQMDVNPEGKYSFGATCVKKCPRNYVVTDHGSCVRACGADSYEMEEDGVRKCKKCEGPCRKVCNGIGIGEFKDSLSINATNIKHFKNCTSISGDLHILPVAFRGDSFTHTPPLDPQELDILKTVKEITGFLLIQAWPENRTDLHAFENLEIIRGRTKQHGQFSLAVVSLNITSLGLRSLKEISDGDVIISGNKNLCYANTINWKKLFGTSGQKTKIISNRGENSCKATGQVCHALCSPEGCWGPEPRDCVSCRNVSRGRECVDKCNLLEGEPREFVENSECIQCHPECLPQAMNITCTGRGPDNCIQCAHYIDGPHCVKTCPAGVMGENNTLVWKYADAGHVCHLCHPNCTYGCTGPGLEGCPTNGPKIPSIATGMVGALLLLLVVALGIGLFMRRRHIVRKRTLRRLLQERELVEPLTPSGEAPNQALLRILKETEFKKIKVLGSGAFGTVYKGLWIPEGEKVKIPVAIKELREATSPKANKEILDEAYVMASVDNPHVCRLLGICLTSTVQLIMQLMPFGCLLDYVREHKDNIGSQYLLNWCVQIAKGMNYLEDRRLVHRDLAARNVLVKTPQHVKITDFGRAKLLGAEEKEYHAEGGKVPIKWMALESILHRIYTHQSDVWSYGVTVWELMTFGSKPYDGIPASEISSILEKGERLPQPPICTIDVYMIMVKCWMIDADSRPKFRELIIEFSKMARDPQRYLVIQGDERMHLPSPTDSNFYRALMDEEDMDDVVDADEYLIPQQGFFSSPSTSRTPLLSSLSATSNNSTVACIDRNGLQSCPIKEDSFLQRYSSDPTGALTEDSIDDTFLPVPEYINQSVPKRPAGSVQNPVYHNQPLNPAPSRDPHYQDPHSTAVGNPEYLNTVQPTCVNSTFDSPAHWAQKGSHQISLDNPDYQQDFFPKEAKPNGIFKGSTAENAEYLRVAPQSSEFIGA

[10] = tested on: NCI-H1975; assay: Effect on total AKT level in EGF-stimulated human NCI-H1975 cells expressing EGFR T790M mutant preincubated for 2 hrs followed by EGF stimulation measured after 15 mins by Western blot analysis; format: ADME, cell-based; details: nci-h1975, 0.25 h
[11] = tested on: NCI-H1975; assay: Selectivity index, ratio of IC50 for human MCF10A cells to IC50 for human NCI-H1975 cells harboring EGFR L858R/T790M mutant
[12] = tested on: NCI-H1975; assay: Selectivity index, ratio of IC50 for human LO2 cells to IC50 for human NCI-H1975 cells harboring EGFR L858R/T790M mutant
[13] = tested on: A-431; assay: Cytotoxicity against human A431 cells overexpressing wild type EGFR after 72 hrs by SRB assay; format: cell-based; details: A-431, 72 h
[14] = target: T2, Epidermal growth factor receptor; assay: Inhibition of EGF-stimulated wild type EGFR phosphorylation in human A431 cells at 100 nM preincubated for 2 hrs followed by EGF stimulation measured after 15 mins by Western blot analysis; format: cell-based; details: a-431, 0.25 h, 0.1 µM
[15] = target: T2, Epidermal growth factor receptor; assay: Inhibition of EGF-stimulated wild type EGFR phosphorylation in human A431 cells assessed as suppression of AKT phosphorylation at 100 nM preincubated for 2 hrs followed by EGF stimulation measured after 15 mins by Western blot analysis; format: cell-based; details: a-431, 0.25 h, 0.1 µM
[16] = tested on: Epidermal growth factor receptor (Homo sapiens), P00533 [T790M]; details: 100 nM
Sequence of Epidermal growth factor receptor (Homo sapiens), P00533 [T790M] (P00533 whole entry T790M): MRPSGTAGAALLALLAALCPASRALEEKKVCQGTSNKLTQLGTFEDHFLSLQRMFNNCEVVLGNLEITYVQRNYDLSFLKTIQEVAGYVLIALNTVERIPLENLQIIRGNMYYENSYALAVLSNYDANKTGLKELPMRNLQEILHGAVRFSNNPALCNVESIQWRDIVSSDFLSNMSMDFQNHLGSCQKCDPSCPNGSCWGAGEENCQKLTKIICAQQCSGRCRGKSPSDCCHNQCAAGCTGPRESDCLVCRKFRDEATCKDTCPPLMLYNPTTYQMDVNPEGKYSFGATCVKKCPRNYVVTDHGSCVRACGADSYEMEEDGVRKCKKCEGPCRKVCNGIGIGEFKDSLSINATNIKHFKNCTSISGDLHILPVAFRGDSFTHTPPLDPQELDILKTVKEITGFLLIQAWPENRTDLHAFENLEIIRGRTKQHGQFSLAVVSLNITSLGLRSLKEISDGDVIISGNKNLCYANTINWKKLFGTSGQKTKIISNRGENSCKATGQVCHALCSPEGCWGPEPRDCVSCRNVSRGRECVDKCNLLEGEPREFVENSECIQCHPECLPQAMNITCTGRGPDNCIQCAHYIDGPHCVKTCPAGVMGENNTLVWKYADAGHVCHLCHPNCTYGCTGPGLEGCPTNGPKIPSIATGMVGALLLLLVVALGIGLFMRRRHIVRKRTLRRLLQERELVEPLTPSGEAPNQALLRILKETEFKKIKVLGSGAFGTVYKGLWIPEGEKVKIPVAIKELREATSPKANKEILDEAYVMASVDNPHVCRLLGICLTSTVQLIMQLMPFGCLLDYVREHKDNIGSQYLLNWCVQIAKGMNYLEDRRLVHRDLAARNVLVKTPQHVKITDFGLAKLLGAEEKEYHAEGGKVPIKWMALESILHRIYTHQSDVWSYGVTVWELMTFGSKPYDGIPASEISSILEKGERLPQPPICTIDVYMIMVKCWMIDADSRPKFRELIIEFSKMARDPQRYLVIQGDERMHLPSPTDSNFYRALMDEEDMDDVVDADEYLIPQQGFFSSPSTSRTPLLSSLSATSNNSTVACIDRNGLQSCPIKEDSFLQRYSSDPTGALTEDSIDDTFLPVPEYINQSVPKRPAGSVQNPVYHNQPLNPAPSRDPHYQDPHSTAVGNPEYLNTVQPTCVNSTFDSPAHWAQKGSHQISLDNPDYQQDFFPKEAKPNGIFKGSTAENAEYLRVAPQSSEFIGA

[17] = species: Homo sapiens; assay: Selectivity ratio of Kd for wild type human EGFR to Kd for human EGFR L858R/T790M mutant
[18] = target: T2, Epidermal growth factor receptor; assay: Inhibition of EGF-stimulated wild type EGFR phosphorylation in human A431 cells assessed as suppression of ERK phosphorylation at 100 nM preincubated for 2 hrs followed by EGF stimulation measured after 15 mins by Western blot analysis; format: cell-based; details: a-431, 0.25 h, 0.1 µM
[19] = tested on: NCI-H1975; assay: Selectivity index, ratio of IC50 for human A431 cells overexpressing wild type EGFR to IC50 for human NCI-H1975 cells harboring EGFR L858R/T790M mutant
[20] = tested on: NCI-H1975; assay: Effect on total ERK level in EGF-stimulated human NCI-H1975 cells expressing EGFR T790M mutant preincubated for 2 hrs followed by EGF stimulation measured after 15 mins by Western blot analysis; format: ADME, cell-based; details: nci-h1975, 0.25 h
[21] = tested on: NCI-H1975; assay: Cytotoxicity against human NCI-H1975 harboring EGFR L858R/T790M mutant after 72 hrs by SRB assay; format: functional, cell-based; details: NCI-H1975, 72 h
[22] = tested on: Epidermal growth factor receptor (Homo sapiens), P00533 [L858R,T790M]; details: H1975, 1 uM
[23] = tested on: Epidermal growth factor receptor (Homo sapiens), P00533 [T790M]; details: H1975, 0.3 to 30 nM
[24] = tested on: Epidermal growth factor receptor (Homo sapiens), P00533 [T790M]; details: H1975, 0.3 to 30 nM; remark: listed apart in the source
[25] = tested on: Epidermal growth factor receptor (Homo sapiens), P00533 [T790M]; details: H1975, 0.3 to 30 nM; remark: listed apart in the source

T2 sequence (P00533 whole entry): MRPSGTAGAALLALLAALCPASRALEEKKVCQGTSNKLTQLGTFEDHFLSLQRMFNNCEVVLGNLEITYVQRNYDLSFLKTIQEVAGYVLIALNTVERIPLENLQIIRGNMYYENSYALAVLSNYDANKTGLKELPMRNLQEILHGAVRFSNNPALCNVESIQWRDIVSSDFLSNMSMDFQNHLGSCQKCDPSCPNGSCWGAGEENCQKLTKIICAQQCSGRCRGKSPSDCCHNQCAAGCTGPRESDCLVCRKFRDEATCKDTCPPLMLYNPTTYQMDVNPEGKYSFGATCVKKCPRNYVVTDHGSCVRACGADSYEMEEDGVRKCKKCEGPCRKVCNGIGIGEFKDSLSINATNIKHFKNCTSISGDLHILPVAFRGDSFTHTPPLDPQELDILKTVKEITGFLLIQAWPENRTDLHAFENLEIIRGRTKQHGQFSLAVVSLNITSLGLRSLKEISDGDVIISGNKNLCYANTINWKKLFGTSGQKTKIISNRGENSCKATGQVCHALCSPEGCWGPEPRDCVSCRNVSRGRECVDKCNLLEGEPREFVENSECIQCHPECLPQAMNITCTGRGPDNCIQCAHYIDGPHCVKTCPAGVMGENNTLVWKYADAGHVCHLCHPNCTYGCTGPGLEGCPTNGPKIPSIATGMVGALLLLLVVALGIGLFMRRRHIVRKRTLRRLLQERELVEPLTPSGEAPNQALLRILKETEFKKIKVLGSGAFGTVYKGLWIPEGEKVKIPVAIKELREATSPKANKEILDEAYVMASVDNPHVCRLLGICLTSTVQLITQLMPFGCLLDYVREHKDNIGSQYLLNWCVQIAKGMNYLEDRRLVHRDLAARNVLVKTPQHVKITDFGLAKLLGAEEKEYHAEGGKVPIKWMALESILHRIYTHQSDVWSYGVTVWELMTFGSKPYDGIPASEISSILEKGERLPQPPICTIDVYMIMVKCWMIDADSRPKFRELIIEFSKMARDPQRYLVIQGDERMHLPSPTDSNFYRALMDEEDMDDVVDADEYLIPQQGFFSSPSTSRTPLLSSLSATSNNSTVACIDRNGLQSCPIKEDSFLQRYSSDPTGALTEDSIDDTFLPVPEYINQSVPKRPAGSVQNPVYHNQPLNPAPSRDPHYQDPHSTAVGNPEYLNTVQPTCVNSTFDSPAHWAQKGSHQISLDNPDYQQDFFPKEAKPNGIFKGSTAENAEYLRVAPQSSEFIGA
T1 sequence (P00533 25-1210 T790M/L858R limits assumed): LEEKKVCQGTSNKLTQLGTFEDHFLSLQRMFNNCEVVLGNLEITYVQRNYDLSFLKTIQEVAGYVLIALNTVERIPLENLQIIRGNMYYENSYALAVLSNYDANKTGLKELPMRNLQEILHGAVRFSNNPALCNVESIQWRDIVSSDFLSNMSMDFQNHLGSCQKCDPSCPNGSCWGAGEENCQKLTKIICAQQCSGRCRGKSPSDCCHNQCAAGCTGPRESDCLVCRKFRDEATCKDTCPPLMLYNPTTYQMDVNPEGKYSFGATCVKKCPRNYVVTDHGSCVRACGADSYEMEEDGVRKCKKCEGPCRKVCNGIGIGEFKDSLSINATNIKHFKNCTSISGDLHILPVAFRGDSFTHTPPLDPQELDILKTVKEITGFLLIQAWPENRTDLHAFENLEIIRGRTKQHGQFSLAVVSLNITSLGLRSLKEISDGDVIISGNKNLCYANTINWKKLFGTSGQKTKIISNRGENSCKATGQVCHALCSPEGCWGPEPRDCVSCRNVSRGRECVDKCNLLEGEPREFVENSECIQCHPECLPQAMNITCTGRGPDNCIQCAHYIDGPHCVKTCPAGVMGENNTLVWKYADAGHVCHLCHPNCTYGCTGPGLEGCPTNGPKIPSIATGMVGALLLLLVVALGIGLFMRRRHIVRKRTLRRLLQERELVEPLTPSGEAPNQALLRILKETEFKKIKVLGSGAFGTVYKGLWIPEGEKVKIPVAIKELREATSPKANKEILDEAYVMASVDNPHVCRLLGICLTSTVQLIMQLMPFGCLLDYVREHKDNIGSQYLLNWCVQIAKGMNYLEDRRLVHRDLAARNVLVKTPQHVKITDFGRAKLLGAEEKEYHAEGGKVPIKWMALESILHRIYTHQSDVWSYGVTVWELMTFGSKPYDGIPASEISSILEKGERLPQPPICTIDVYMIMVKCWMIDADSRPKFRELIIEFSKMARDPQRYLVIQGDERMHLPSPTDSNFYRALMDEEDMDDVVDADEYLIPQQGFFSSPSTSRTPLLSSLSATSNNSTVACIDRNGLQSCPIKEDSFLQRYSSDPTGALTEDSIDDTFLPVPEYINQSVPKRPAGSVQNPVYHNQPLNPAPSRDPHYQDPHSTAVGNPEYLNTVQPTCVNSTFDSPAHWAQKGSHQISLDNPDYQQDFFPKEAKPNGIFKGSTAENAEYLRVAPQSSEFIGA

| Kd [1] | Kd [2] | IC50 [3] | IC50 [4] | SMILES | further results |
| --- | --- | --- | --- | --- | --- |
| 2.2 nM | 57 nM | 120 nM | 10 nM | C=CC(=O)Nc1cccc(-n2c(=O)cc(C3CC3)c3cnc(Nc4ccc(N5CCN(C)CC5)cc4OC)nc32)c1 |  |
|  |  | 210 nM | 95 nM | C=CC(=O)Nc1cccc(-n2c(=O)cc(N(C)C)c3cnc(Nc4ccc(N5CCN(C)CC5)cc4OC)nc32)c1 |  |
| 0.5 nM | 2.5 nM | 7.8 nM | 0.2 nM | C=CC(=O)Nc1cccc(-n2c(=O)c(-c3ccccc3)cc3cnc(Nc4ccc(N5CCN(C)CC5)cc4OC)nc32)c1 |  |
| 0.5 nM | 1.2 nM | 1 nM | 0.5 nM | C=CC(=O)Nc1cccc(-n2c(=O)c(Cc3ccccc3)cc3cnc(Nc4ccc(N5CCN(C)CC5)cc4OC)nc32)c1 | Ratio IC50 [5]: 2 |
|  |  | > 1000 nM | > 1000 nM | C=CC(=O)Nc1cccc(-n2c(=O)cc(-c3ccc(-c4ccccc4)cc3)c3cnc(Nc4ccc(N5CCN(C)CC5)cc4OC)nc32)c1 |  |
|  |  | > 1000 nM | 78 nM | C=CC(=O)Nc1cccc(-n2c(=O)cc(C)c3cnc(Nc4ccc(N5CCN(C)CC5)cc4OC(C)C)nc32)c1 |  |
|  |  | 970 nM | 17.8 nM | C=CC(=O)Nc1cccc(-n2c(=O)cc(CCC)c3cnc(Nc4ccc(N5CCN(C)CC5)cc4OC)nc32)c1 |  |
| 0.91 nM | 4.3 nM | 20 nM | 1.6 nM | C=CC(=O)Nc1cccc(-n2c(=O)c(-c3ccccc3)c(C)c3cnc(Nc4ccc(N5CCN(C)CC5)cc4OC)nc32)c1 |  |
| 0.26 nM | 48 nM | 240 nM | 0.8 nM | C=CC(=O)Nc1cccc(-n2c(=O)cc(C)c3cnc(Nc4ccc(N5CCN(C)CC5)cc4OC)nc32)c1 | Ratio IC50 [6]: >1000; Activity [7]: Non-toxic; Ratio IC50 [8]: >1000; inhibition [9]: 99.5%; Activity [10]: Non-toxic; Ratio IC50 [5]: 300; Ratio IC50 [11]: >1000; Ratio IC50 [12]: >1000; IC50 [13]: 870 nM; inhibition (INH) [14]: Active; inhibition (INH) [15]: Active; inhibition [16]: < 65%; Selectivity ratio [17]: 185; inhibition (INH) [18]: Active; Ratio IC50 [19]: 311; Activity [20]: Non-toxic; IC50 [21]: 2.8 nM; inhibition [22]: Active |
|  |  | 98 nM | 94 nM | C=CC(=O)Nc1cccc(-n2c(=O)cc(C(C)C)c3cnc(Nc4ccc(N5CCN(C)CC5)cc4OC)nc32)c1 |  |
|  |  | 270 nM | 19 nM | C=CC(=O)Nc1cccc(-n2c(=O)cc(C)c3cnc(Nc4ccc(N5CCN(C)CC5)cc4OCCC)nc32)c1 |  |
|  |  | 97 nM | 21 nM | C=CC(=O)Nc1cccc(-n2c(=O)cc(-c3ccccc3)c3cnc(Nc4ccc(N5CCN(C)CC5)cc4OC)nc32)c1 |  |
| 0.43 nM | 14 nM | 15 nM | 0.5 nM | C=CC(=O)Nc1cccc(-n2c(=O)ccc3cnc(Nc4ccc(N5CCN(C)CC5)cc4OC)nc32)c1 | Ratio IC50 [5]: 30; Selectivity ratio [17]: 32.5 |
| 1.8 nM | 140 nM | 114 nM | 6.7 nM | C=CC(=O)Nc1cccc(-n2c(=O)cc(CC)c3cnc(Nc4ccc(N5CCN(C)CC5)cc4OC)nc32)c1 |  |
| 0.88 nM | 6.2 nM | 16 nM | 1.3 nM | C=CC(=O)Nc1cccc(-n2c(=O)c(C)cc3cnc(Nc4ccc(N5CCN(C)CC5)cc4OC)nc32)c1 |  |
| 1.2 nM | 350 nM | 170 nM | 11 nM | C=CC(=O)Nc1cccc(-n2c(=O)cc(C)c3cnc(Nc4ccc(N5CCN(C)CC5)cc4OCC)nc32)c1 |  |
|  |  | > 1000 nM | 39 nM | C=CC(=O)Nc1cccc(-n2c(=O)cc(C(F)(F)F)c3cnc(Nc4ccc(N5CCN(C)CC5)cc4OC)nc32)c1 |  |
|  |  | > 1000 nM | 280 nM | C=CC(=O)Nc1cccc(-n2c(=O)cc(C)c3c(C)nc(Nc4ccc(N5CCN(C)CC5)cc4OC)nc32)c1 |  |
|  |  |  |  | C=CC(=O)Nc1cccc(Oc2nc(Nc3ccc(N4CCN(C)CC4)cc3OC)ncc2Cl)c1 | inhibition [23]: Active; inhibition [24]: Active; inhibition [25]: Active |

Source: ChEMBL document CHEMBL3751728, “C5-substituted pyrido[2,3-d]pyrimidin-7-ones as highly specific kinase inhibitors targeting the clinical resistance-related EGFRT790Mmutant” (Medchemcomm, 2015)
